Read-outs that look alike come from different tables or passages of the source.
Assays:
[1] = pure lipid; cited from earlier work
[2] = test system: human colon tumor cell lines; experiment: In vitro cytotoxicity survey, panel of human colon tumor cell lines; assay type: cell-based; conditions: HT-29, all cell lines tested except HT29, 72 h
Description: (§1) A number of commercially available and privately-acquired tumor cell lines were initially surveyed for their sensitivity to various platinum agents, including oxaliplatin. […] The cell lines were also surveyed for sensitivity to 5FU. […] Additionally, literature survey was conducted in search of in vitro-generated oxaliplatin-resistant colorectal cell lines to potentially include pre-clinical pharmacology studies in an effort to show improved sensitivity of these cells to a liposomal vs. free oxaliplatin treatment. From this survey, […] other oxaliplatin-resistant colorectal tumor lines were identified; HT29 (Plascencia et al., 2006; Yang et al., 2006), and DLD-1 (Kashiwagi et al., 2011).

HT29 = experiment: In vitro cytotoxicity, HT29; assay type: cell-based, human
Description: A number of commercially available and privately-acquired tumor cell lines were initially surveyed for their sensitivity to various platinum agents, including oxaliplatin. […] The cell lines were also surveyed for sensitivity to 5FU.
Two studies of the novel liposome formulation containing oxaliplatin were conducted in this tumor model.

[3] = test system: KB (epidermoid oral carcinoma human tumor) cells; experiment: In vitro cytotoxicity, KB cells
Description: (§2) Prior to initiation of this study, oxaliplatin was evaluated for drug tolerance in non-tumor bearing immunodeficient mice.

HCT-116 cells = experiment: In vitro cytotoxicity survey, HCT-116; assay type: cell-based, human; conditions: 72 h
Description: as §1

[4] = Drug tolerance in non-tumor bearing immunodeficient mice; assay type: in vivo
Description: as §2

KB xenograft tumors = experiment: Single-dose efficacy in mice bearing KB xenografts; assay type: in vivo, nude mice; conditions: 15 mg/kg
Text: One-way ANOVA followed by Neuman-Keuls post hoc test.

For `CCCCCCCC/C=C\CCCCCCCC(=O)O[C@H](COC(=O)CCCCCCCCCCCCCCC)COP(=O)([O-])OCC[N+](C)(C)C` [POPC, 1-palmitoyl-2-oleoyl-sn-glycero-3-phosphocholine], the “gel-liquid crystalline thermal transition temperature” value [1] is given as “around −2 °C”.
With `O=c1[nH]cc(F)c(=O)[nH]1` [Sample 5FU, 5-fluorouracil] the IC50 [2] was 7 to 10 µM and the IC50 (HT29; Homo sapiens, HT-29, HT29, 72 h) was > 50 µM.
Work on `N.N.[Cl][Pt][Cl]` [cisplatin] yielded an IC50 ([3]; read-out: sensitivity (IC50), KB cell-line) of 4 µM.
`O=C1[O][Pt]2([NH][C@@H]3CCCC[C@H]3[NH]2)[O]C1=O` [oxaliplatin, [(1R,2R)-cyclohexane-1,2-diamine](ethanedioato-O,O′)platinum(II)] gave an IC50 (HT29; HT29 and several other cell lines, 72 h) of 5 to 10 µM, an IC50 (HT29; HT29 cell line used in the present studies) of 5.4 µM and an IC50 (HCT-116 cells) of 0.4 µM. The IC50 ([3]; KB cell-line, 72 h) was 5.4 µM, the IC50 ([3]; KB cells, cytotoxicity testing prior to injection) was 5.3 µM and the “drug tolerance (in words)” value ([4]; doses above 15 mg/kg (i.e., 20 mg/kg)) was “dehydration and unacceptable gross body weight losses”. The “maximum tolerated dose (MTD)” value ([4]; mice) was 15 mg/kg, the “tumor growth and survival compared to saline control (in words)” value (KB xenograft tumors) was “did not significantly inhibit tumor growth or increase survival” and the “Median Survival” value (KB xenograft tumors; KB xenografts) was 25.5. For the same compound, the TGI (KB xenograft tumors; KB xenografts) was 0%.
